SMILES strings stand for the structures. Several values for one entry are separate records, joined by “and”; a condition that tells them apart may be missing. Equal entries are not always repeated.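 How tested: cells in 96-well plates exposed to compound for 48 hours at five concentrations. Here, GI50 denotes the concentration required for 50% inhibition of growth. TGI is the concentration that stops growth completely.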 Some results are limits rather than exact numbers.

The subject of the assay is MDA-MB-468 breast. The assay can be described thus: NCI anticancer screen, dose series, 48 h.
Turning to `COc1cccc(-c2nn(-c3ccccc3)cc2-c2ccnc(NCCNC(=O)Nc3cccc(C(F)(F)F)c3)c2)c1`, the GI50 was 1.7 µM and the TGI was 3.43 µM.
In the case of `COc1ccc(-c2ccc(-c3ccc(C(=N)N)nc3)s2)cc1Cl`, the GI50 was 1.74 µM and the TGI came out at 3.32 µM.
For the compound `O=C(CN1CCN(c2cc3c(cc2F)c(=O)c(C(=O)O)cn3C2CC2)CC1)Nc1nc(-c2ccc(Cl)cc2)cs1`, the GI50 was 3.43 µM and the TGI was found to be 30.7 µM.
With `CC1=CC(=O)C(C(C)C)=CC1=Nc1cc(Br)c(O)c(Br)c1`, the GI50 was 3.7 µM and the TGI was determined as 15.5 µM.
`Cc1ccc(/C=C2\CN(C(=O)C(Cl)Cl)C/C(=C\c3ccc(C)cc3)C2=O)cc1`: the GI50 is 0.195 µM and the TGI worked out at 0.427 µM.
In the case of `CCN1C(=O)N(CC)C2SC(N/N=C/c3ccccc3)=NC21` (stereo not given), the GI50 is 0.293 µM.
`C=C1C(=O)O[C@H]2[C@H]1CC/C(COC(=O)CCSCCC(=O)OC/C1=C/CC[C@@]3(C)O[C@H]3[C@H]3OC(=O)C(=C)[C@@H]3CC1)=C\CC[C@@]1(C)O[C@@H]21`: the GI50 is 0.358 µM and the TGI turned out to be 1.5 µM.
Regarding `COc1ccccc1C1=C(Nc2ccccc2)C(=O)NC1=O`, the GI50 is above 10.3 µM and the TGI was above 25 µM.
Take `COc1cc2c(cc1OC)C(Sc1ccc(SC)cc1)c1c(nc(N)c(C#N)c1N)O2` (stereo not given): the GI50 is 1.03 µM and the TGI came out at 2.62 µM.
As to `CN(Cc1cccc(F)c1)c1ccc(CO)c(Cl)c1`, the GI50 was 0.0455 µM and the TGI came out at 0.169 µM.
With `Cn1ccnc1C(=O)/C=C/c1ccc(CNC(=O)c2ccc(Cl)cc2)cc1`, the GI50 was 2.05 µM and the TGI is 4.75 µM.
Taken in the same sequence, the figures for `C=C(C)C(=O)O[C@H]1C[C@@]2(C)OC(=CC2=O)/C(CO)=C\[C@H]2OC(=O)C(=C)[C@H]12` were 0.0416 µM and 0.127 µM.
The like results for `COC1=C(C)C(=O)c2c(c(CCCl)c3n2CCC3O)C1=O` (stereo not given) were, in that order, 11.1 µM and 34.5 µM.
For the compound `COc1cccc(/C=N/NC(=S)NC2CC3CCC2C3)c1O` (stereo not given), the GI50 is 11.4 µM and the TGI is above 100 µM.
As for `CCC(c1ccc(OC)cc1)C(CC)c1ccc(O)c(CN2CCN(C)CC2)c1` (stereo not given), the GI50 was 2.5 µM and the TGI came out at 9.77 µM.
With `CC(C)N1CCN(Cc2ccc3c(NNC(=O)c4ccccc4)nc4cc(F)ccc4n23)CC1`, the GI50 was 0.26 µM and the TGI came out at 1.4 µM.
For `COc1cc(NS(C)(=O)=O)ccc1Nc1c2ccccc2nc2ccccc12`, the GI50 was 469 nM [middle of 4 runs].
In the case of `Cc1ccc(C(NC(=O)c2ccccc2)c2ccc3cccnc3c2O)cc1` (stereo not given), the GI50 was 0.219 µM and the TGI was 0.788 µM.
For `CCN1C(=O)CCCc2c1ccc(Nc1ncc(Cl)c(NC3[C@@H](C(N)=O)[C@@H]4C=C[C@H]3C4)n1)c2OC` (stereo not given in full), the GI50 was 1.13 µM and the TGI turned out to be 4.8 µM.
Taken in the same sequence, the figures for `O=[N+]([O-])c1ccc(Oc2nc(Nc3ccc(O[C@H]4CO[C@H]5[C@@H]4OC[C@@H]5O)c(Cl)c3)ncc2F)c(Cl)c1` were 1.47 µM and 4.66 µM.
For the compound `FC(F)(F)c1ccc(-c2cnc(-n3cc(COCCN4CCCCC4)nn3)nc2NC2CCCCCC2)cc1`, the GI50 is 3.54 µM and the TGI turned out to be 7.37 µM.
The like results for `CCN(Cc1ccc(F)cc1)c1ccc(CO)c(C)c1` were, in that order, 0.167 µM and 0.591 µM.
`N#Cc1c(Br)n(C2OC(CO)C(O)C2O)c2ncnc(N)c12` (stereo not given): the GI50 was 2.01 µM and the TGI worked out at 6.12 µM.
Taken in the same sequence, the figures for `O=C(O)c1cn(C2CC2)c2cc(N3CCN(C(=O)Nc4nc(-c5ccccc5)cs4)CC3)c(F)cc2c1=O` were 0.563 µM and 6.52 µM.
As for `Cc1cc2cc3ccc(N(C)C)cc3nc2cc1N`, the GI50 is 0.229 µM and the TGI was determined as 1.26 µM.
Regarding `COc1ccc(C(c2ccc(OCCN(C)C)cc2)c2cc3ccccc3c3ccccc23)cc1` (stereo not given), the GI50 is 1.58 µM and the TGI was determined as 3.15 µM.
As for `O=C1c2c(c3c4cc(O)ccc4oc3c3[nH]c4ccccc4c23)C(=O)N1O`, the GI50 was 0.478 µM and the TGI came out at 1.55 µM.
The like results for `COc1ccc2c(C3(c4cn(C)c5cc(OC)ccc45)C(=O)Nc4ccc(Cl)cc43)cn(C)c2c1` were, in that order, 2.54 µM and 9.08 µM.
As for `COc1ccc(/C=c2\sc3n(c2=O)C2C(NN=3)N(C)C(=O)N2C)cc1` (stereo not given), the GI50 is 0.231 µM and the TGI worked out at 0.783 µM.
As to `Nc1nc(N)c(C=Nc2ccc(Br)cc2)c(Nc2ccc(Br)cc2)n1`, the GI50 was 11 µM and the TGI stood at 23.3 µM.
Regarding `Cc1cc(Nc2nc(-c3cccnc3)nc3ccccc23)n[nH]1`, the GI50 is 1.78 µM and the TGI is 21.4 µM.
Regarding `NC(=S)n1c(=O)n(-c2cccc(C(F)(F)F)c2)c(=O)c2cc(-c3ccc(F)cc3F)ccc21`, the GI50 is 2.01 µM and the TGI amounted to 5.8 µM.
For the compound `CC1=C(CN(O)C(N)=O)C2=C(C)C3(CC3)[C@](C)(O)C(=O)C2=C1`, the GI50 is 0.184 µM and the TGI came out at 0.497 µM.
Take `CC1=C(/C=C/C(C)=C/C=C/C(C)=C/C=N/NC(=S)NC(=S)N/N=C/C=C(C)/C=C/C=C(C)/C=C/C2=C(C)CCCC2(C)C)C(C)(C)CCC1`: the GI50 is 3.25 µM and 2.84 µM; the TGI was 10.5 µM and 10.2 µM.
On to `Oc1ccc(-c2nc3ccc4[nH]ncc4c3c3c2CCCC3)c(F)c1`, for which the GI50 was 4.06 µM and the TGI was determined as 20.3 µM.
The like results for `CCOc1cc(Br)c(C(C)NC(=O)c2cccc(OC)c2)cc1OCC` (stereo not given) were, in that order, 3.46 µM and 54.7 µM.
As to `CCCCCCNC(=O)Oc1ccc(/C(=C(/C)Cc2ccc(OC)cc2)c2ccc(OCCCN(C)C)cc2)cc1`, the GI50 was 16.7 µM and the TGI came out at 32.6 µM.
As to `COc1cccc(-c2ccc3c(c2)C2CCN(Cc4ccccc4)C3C2)c1` (stereo not given), the GI50 was 2.89 µM and the TGI worked out at 16.1 µM.
Taken in the same sequence, the figures for `Cn1nc(-c2ccc(Cl)cc2)nc2c(=O)n(C)c(=O)nc1-2` were 1.18 µM and 3.35 µM.
For the compound `Brc1ccc2[nH]cc(-c3nc(-c4c[nH]c5ncccc45)cs3)c2c1`, the GI50 is 2.66 µM and the TGI amounted to 10.9 µM.
As to `CC(=O)N1N=C(c2ccc(Nc3ccnc4cc(Cl)ccc34)cc2)CC1c1ccc(Cl)cc1` (stereo not given), the GI50 is 2.41 µM and the TGI was above 100 µM.
